Laboratory results: patent US20070099958A1, “Protease inhibitors” (ProZymex A/S, priority 2003, published 2007)

What was measured:
Human DPP-I = biological target: T1, Human DPP-I (Homo sapiens, UniProt P53634); test: Human dipeptidyl peptidase I (DPP-I) assay; assay type: biochemical; conditions: Gly-Phe-AFC substrate, pH 6.0, 37° C.; read-out: Primary enzymatic screening (IC50) DPP-I
T1 construct: purchased UniZyme A/S
Procedure: Human dipeptidyl Peptidase I (DPP-I) Assay
Using this assay, the IC50 value of a compound of the invention as a DPP-I inhibitor was determined using an AFC substrate.
100 mM sodium phosphate (8.9 g Na2HPO4; M=177.99), 150 mM KCl (5.6 g KCl; M=74.6) and 1.5 mM EDTA (279 mg EDTA; M=372.2) was dissolved in 500 mL H2O, and pH was adjusted to 6.0. Cysteine*HCl (Sigma C-1276; M=157.6), 1 mg/mL assay buffer, corresponding to 6 mM, was added to the solution for activation of the DPP-1 enzyme.
Gly-Phe-AFC*TFA (Enzyme Systems Products AFC-033) was used as the substrate for determination of IC50 values. Km was 270 μM. The substrate was solubilized in DMSO to give a 7.5 mM stock solution (2.2 mg of substrate was added to 0.5 mL DMSO).
Human DPP-I (hDDP-I; obtained from UniZyme A/S, DK-2970Hørsholm, Denmark) was stored at −20° C. in a buffer containing 2.5 mM Na-phosphate, 150 mM NaCl, 2 mM cysteamine, 50% glycerol, pH 7.0 at a concentration of 2.5 mg/mL. This stock solution was diluted 200 times in the assay buffer.
The assay was performed in 96-well plates. […] The excitation wavelength was 400 nm, and the emission was measured at 505 nm for 10 minutes at 37° C. […] In the software (SOFTmax Pro) used for data collection from the fluorometer (Molecular Devices: Gemini XS), it was ensured that the measured slopes were linear (R^2>0.99). […]

CYP2D6 = biological target: T2, CYP2D6 (Homo sapiens, UniProt P10635); test: CYP2D6 assay (Vivid CYP2D6 Cyan Screening Kit); assay type: in vitro ADME; conditions: read-out: Metabolism: CYP enzymes (20 μM cutoff or IC50) CYP2D6
T2 construct: purchased PanVera
Procedure: (§1) Following the procedure for CYP1A2, using the appropriate kits below, the effect of a compound of the invention on the other CYP enzymes was determined:
Vivid® CYP2D6 Cyan Screening Kit from PanVera.

CYP3A4 = biological target: T3, CYP3A4 (Homo sapiens, UniProt P08684); test: CYP3A4 assay (Vivid CYP3A4 Red Screening Kit); assay type: in vitro ADME; conditions: read-out: Metabolism: CYP enzymes (20 μM cutoff or IC50) CYP3A4
T3 construct: purchased PanVera
Procedure: as §1
Vivid® CYP3A4 Red Screening Kit from PanVera.

T3 sequence (P08684 2-503 limits assumed): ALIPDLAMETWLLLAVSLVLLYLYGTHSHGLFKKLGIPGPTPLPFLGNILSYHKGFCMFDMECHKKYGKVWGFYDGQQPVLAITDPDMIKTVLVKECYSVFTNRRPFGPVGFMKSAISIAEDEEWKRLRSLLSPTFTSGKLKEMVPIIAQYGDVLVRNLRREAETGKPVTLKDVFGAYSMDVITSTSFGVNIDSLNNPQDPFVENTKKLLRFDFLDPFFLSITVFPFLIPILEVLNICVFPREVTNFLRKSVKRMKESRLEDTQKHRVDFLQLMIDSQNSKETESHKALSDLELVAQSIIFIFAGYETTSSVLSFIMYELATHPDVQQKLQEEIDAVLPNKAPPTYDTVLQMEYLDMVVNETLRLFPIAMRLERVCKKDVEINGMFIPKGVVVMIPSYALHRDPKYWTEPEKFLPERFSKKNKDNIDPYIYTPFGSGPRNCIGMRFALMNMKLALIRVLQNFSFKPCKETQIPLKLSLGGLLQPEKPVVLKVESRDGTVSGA
T1 sequence (P53634 231-394 limits assumed): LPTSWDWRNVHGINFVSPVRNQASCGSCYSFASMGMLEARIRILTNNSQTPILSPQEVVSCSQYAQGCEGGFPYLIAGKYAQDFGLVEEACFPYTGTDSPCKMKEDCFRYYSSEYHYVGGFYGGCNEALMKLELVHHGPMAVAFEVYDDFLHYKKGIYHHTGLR
T1 sequence (P53634 395-463 limits assumed): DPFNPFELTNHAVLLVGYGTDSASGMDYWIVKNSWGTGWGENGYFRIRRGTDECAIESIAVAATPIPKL
T1 sequence (P53634 25-143 limits assumed): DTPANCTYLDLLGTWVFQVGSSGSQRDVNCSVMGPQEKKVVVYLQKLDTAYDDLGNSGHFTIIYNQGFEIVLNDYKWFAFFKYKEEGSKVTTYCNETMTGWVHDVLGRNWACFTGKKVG
T2 sequence (P10635 whole entry): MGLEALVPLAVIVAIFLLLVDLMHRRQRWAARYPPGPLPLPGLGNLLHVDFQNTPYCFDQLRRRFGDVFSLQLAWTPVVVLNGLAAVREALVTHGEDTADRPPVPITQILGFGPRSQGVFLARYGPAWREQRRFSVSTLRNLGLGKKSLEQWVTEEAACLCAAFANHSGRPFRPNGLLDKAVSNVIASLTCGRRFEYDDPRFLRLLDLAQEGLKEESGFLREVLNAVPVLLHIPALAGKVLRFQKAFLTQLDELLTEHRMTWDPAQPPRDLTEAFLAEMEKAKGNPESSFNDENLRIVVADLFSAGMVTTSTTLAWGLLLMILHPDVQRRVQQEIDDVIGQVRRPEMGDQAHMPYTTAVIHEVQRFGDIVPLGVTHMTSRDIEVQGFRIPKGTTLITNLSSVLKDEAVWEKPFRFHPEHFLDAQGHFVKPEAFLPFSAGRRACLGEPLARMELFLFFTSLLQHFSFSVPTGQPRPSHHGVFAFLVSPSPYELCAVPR

CC[C@H](N)C(=O)N[C@H](C#N)Cc1ccc(-c2ccccc2)cc1 [Example 5, (2S)—N-[(2S)-2-aminobutanoyl]-2-amino-3-(1,1′-biphenyl-4-yl)propionitrile]
IC50 (Human DPP-I): 13 ± 3 nM | IC50 (CYP2D6): 12.6 ± 0.677 µM | IC50 (CYP3A4): 3.6 ± 3.41 µM
